From patent US20080026067A1, “Method for Increasing Specific Surface Area of Slightly Soluble Drug” (priority 2004, published 2008)

Assays:
Format in all cases: physicochemical
[1] = Measurement of tap density; conditions: tapped 3 minutes at 60 times/minute
Experimental: A tap density of a powder of the compound A is preferably in the range of about 0.1 to about 0.4 g/cm^3, and more preferably in the range of about 0.1 to about 0.3 g/cm^3. A tap density can be measured by known method. It includes, for example, the method that about 3 g sample is precisely weighed, it is put into dried 50 mL graduated cylinder (scale: by 0.1 mL) without consolidation, the graduated cylinder is set on tapping machine for tap density, then it is tapped for 3 minutes at 60 times/minute, final tap density is found, and value that the weight (g) of particulate is divided by final tap density (cm^3) of particulate is assumed tap density (g/cm^3), and method described in the following Examples and so on.
About 3 g of the powder of compound A is precisely weighed, it is put into dried 50 mL graduated cylinder (scale: by 0.1 mL) without consolidation, the graduated cylinder is set on tapping machine for tap density, then it is tapped for 3 minutes at 60 times/minute, final tap density is found. The value that the weight (g) of particulate is divided by final bulk density (cm^3) of particulate is assumed tap density (g/cm^3). As a result, the tap density of the powder of compound A prepared in Adjustment Example 4(3) was 0.28 g/cm^3 (non-crushing composition) and 0.13 g/cm^3 (crushing composition). The tap density of tie powder of compound A prepared in Adjustment Example 4(4) was 0.23 g/cm^3 (non-crushing composition) and 0.16 g/cm^3 (crushing composition).[

[2] = Accelerated test (storage stability: purity by HPLC, degree of moisture by Karl Fisher); conditions: for Degree of moisture (%) / Purity (%): crushing composition
Experimental: 1 g of the powder of compound A was poured into the two-lay plastic bag and closed firmly with banding band. This was poured into miniature fiber dram and then this was preserved in the stability tester under the condition for 6 months, at 40° C., at 75% relative humidity. And then, the purity (quantitative value) and the degree of moisture (%) of the powder of compound A were measured. The measurement of the degree of moisture was performed by known method: the moisture vaporization method/Karl Fisher electrometrical titration method. The measurement of purity was performed by high performance liquid chromatography (HPLC).
About 0.04 mg/mL N,N-dimethylformamide/acetontirile (3/7) solution of reference material and measurement sample of compound A was prepared. In this case, the concentration of the solutions was precisely found. These solutions was set under the below test condition and the purity of measurement sample was calculated from the obtained area value of the peak.
• The detector: ultraviolet absorptiometer (measurement wavelength: 278 nm), • The column: YMC-Pack ODS-A-302 (inside diameter 4.6 mm, length 15 cm), • The mobile phase: acetonitrile/5 mmol/L sodium acetate buffer (It was prepared to pH 4.5 using acetate.)/2-propanol mixture (5/4/1), • The flow: The retention time of the compound A was prepared to be about 12 minutes (about 1.0 mL/min), • The column temperature: the constant temperature in the vicinity of 40° C. • The injection volume: 20 μL.

[3] = Specific surface area of the powder, multipoint BET method
Experimental: A specific surface area of a powder of the compound A obtained by the above-described methods and the following Examples can be measured by known method, for example, multipoint BET method.
A specific surface area of the compound A was adjusted to give the crystalline powders with different specific surface area by the following method. As well, the measurement of specific surface area was performed by multipoint BET method.

[4] = Measurement of bulk density
Experimental: A bulk density of a powder of the compound A is preferably in the range of about 0.05 to about 0.3 g/cm^3, and more preferably in the range of about 0.05 to about 0.2 g/cm^3. A bulk density can be measured by known method. It includes, for example, the method that about 3 g sample is precisely weighed, it is put into dried 50 mL graduated cylinder (scale: by 0.1 mL) without consolidation, it reads to minimum unit of scale and value that the weight (g) of particulate is divided by the volume (cm^3) of particulate is assumed bulk density (g/cm^3), and method described in the following Examples and so on.
About 3 g of compound A is precisely weighed, it is put into dried 50 mL graduated cylinder (scale: by 0.1 mL) without consolidation, it reads to minimum unit of scale. The value that the weight (g) of particulate is divided by the volume (cm^3) of particulate is assumed bulk density (g/cm^3). As a result, the bulk density of the powder of compound A prepared in Adjustment Example 4(3) was 0.18 g/cm^3 (non-crushing composition) and […] (crushing composition). The bulk density of compound A prepared in Adjustment Example 4(4) was 0.18 g/cm^3 (non-crushing composition) and 0.08 g/cm^3 (crushing composition).

[5] = 6 months at 40°C, 75% relative humidity
[6] = over 6 months at 40°C, 75% relative humidity

Cc1ccc(-c2nc(CCOc3cccc4c3CCC=C4CCC(=O)O)c(C)o2)cc1 [Adjustment Example 4(4), 3-(5-{2-[5-methyl-2-(4-methylphenyl)-1,3-oxazol-4-yl]ethoxy}-3,4-dihydronaphthalen-1-yl)propanoic acid]
tap density ([1]; crushing composition): 0.16 g/mL
tap density ([1]; non-crushing composition): 0.23 g/mL
Degree of moisture (%) ([2]; 0 month): 0.1%
Purity (%) ([2]; 0 month): 98.5%
long-term storage stability [2, 5]: stable in long-term storage
Degree of moisture (%) [2, 5]: 0.1%
Purity (%) [2, 5]: 98.2%
change (increase) of degree of moisture [2, 6]: no change
decrease of purity [2, 6]: 0.3%
specific surface area ([3]; crushing composition (jet mill crushed)): 13.4 m^2/g
specific surface area ([3]; non-crushing composition): 11.2 m^2/g
bulk density ([4]; crushing composition): 0.08 g/mL
bulk density ([4]; non-crushing composition): 0.18 g/mL
